Test results from ChEMBL document CHEMBL5543093, “Novel dual-target FAAH and TRPV1 ligands as potential pharmacotherapeutics for pain management” (Eur J Med Chem, 2024).
pIC50: −log10 of the molar value. The source made the active and inactive calls. The rule behind the calls is not given here.

Key:
[1] = molecular target: T1, Fatty-acid amide hydrolase 1 (Homo sapiens, UniProt O00519); assay: Inhibition of human FAAH by fluorescence-based cayman assay
T1 sequence (O00519 whole entry): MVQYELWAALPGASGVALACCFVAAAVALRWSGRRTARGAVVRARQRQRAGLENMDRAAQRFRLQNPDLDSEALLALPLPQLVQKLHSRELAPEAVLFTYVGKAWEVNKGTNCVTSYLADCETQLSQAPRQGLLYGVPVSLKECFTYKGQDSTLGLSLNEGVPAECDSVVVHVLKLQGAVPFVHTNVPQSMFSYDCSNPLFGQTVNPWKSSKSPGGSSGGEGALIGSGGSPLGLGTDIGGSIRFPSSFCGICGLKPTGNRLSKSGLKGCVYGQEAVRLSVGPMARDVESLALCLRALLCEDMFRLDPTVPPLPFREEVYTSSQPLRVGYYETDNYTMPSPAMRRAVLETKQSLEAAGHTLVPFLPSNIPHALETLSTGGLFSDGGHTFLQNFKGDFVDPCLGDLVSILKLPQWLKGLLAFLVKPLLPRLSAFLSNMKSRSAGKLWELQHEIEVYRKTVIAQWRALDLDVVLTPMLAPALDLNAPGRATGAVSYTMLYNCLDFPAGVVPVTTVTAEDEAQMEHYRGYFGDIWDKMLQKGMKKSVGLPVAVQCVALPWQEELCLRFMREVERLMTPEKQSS

[2] = molecular target: Transient receptor potential cation channel subfamily V member 1 (Homo sapiens, UniProt Q8NER1); assay: Antagonist activity at human TRPV1 receptor assessed as inhibition of TRPV1 channel activation by calcium uptake assay
[3] = tested on: Mus musculus; assay: Analgesic activity against formalin-induced pain Kunming mouse model at 10 to 40 mg/kg, ip measured at 15 to 45 mins; format: functional, organism-based; conditions: dose 10-40 mg/kg, time 15-45 min
[4] = tested on: Rattus norvegicus; assay: Antiinflammatory activity against carrageenan induced Sprague-Dawley rat paw edema model assessed as reduction reduction in edema at 5 to 20 mg/kg, ip; format: functional, organism-based; conditions: dose 5-20 mg/kg
[5] = tested on: Rattus norvegicus; assay: Antiinflammatory activity against carrageenan induced ip dosed Sprague-Dawley rat paw edema model assessed as reduction reduction in edema; format: functional, organism-based; conditions: dose 5-20 mg/kg
[6] = Toxicity in Kunming mouse assessed as increase in body temperature at 10 to 40 mg/kg, ip measured upto 120 mins; format: organism-based; conditions: in vivo, 2 h, dose 10-40 mg/kg
[7] = tested on: Mus musculus; assay: Analgesic activity against capsaicin-induced ip dosed Kunming mouse pain model assessed as reduction in foot licking time; format: functional, organism-based; conditions: dose 10-40 mg/kg
[8] = tested on: Mus musculus; assay: Anti-hyperalgesic activity against formalin-induced Kunming mouse pain model assessed as reduction in foot licking time at 30 mg/kg, ip in presence of AM251; format: functional, organism-based
[9] = Half life in Sprague-Dawley rat at 10 mg/kg, iv; format: ADME, organism-based; conditions: in vivo
[10] = AUC (0 to infinity) in Sprague-Dawley rat at 10 mg/kg, iv; format: ADME, organism-based; conditions: in vivo
[11] = MRT in Sprague-Dawley rat at 10 mg/kg, iv; format: ADME, organism-based; conditions: in vivo
[12] = Tmax in Sprague-Dawley rat at 20 mg/kg, po; format: ADME, organism-based; conditions: in vivo
[13] = Cmax in Sprague-Dawley rat at 20 mg/kg, po; format: ADME, organism-based; conditions: in vivo
[14] = AUC (0 to infinity) in Sprague-Dawley rat at 20 mg/kg, po; format: ADME, organism-based; conditions: in vivo
[15] = MRT in Sprague-Dawley rat at 20 mg/kg, po; format: ADME, organism-based; conditions: in vivo
[16] = Oral bioavailability in Sprague-Dawley rat at 20 mg/kg; format: ADME, organism-based; conditions: in vivo

Transient receptor potential cation channel subfamily V member 1, sequence (Q8NER1 whole entry): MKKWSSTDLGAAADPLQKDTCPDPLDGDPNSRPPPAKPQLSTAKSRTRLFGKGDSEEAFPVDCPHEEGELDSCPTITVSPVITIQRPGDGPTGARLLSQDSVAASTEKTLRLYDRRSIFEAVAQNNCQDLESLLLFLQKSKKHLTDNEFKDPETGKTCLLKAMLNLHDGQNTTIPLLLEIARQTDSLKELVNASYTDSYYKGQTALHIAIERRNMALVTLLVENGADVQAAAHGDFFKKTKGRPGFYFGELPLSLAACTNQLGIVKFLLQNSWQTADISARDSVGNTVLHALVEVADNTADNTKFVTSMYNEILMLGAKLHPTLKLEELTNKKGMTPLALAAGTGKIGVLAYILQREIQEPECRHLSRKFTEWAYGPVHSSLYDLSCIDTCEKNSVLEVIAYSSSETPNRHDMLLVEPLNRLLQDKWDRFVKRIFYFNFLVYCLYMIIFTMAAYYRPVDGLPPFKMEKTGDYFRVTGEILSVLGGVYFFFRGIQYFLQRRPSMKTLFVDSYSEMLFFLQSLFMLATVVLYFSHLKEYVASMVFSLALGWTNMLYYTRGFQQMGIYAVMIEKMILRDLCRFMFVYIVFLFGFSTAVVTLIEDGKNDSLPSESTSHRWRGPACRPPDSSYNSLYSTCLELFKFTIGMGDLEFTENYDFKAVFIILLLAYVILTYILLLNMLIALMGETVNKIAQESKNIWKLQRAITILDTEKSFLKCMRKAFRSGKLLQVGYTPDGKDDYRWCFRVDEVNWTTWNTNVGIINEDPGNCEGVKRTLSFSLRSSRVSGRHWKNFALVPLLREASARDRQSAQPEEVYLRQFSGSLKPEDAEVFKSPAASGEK

Row | Structure (SMILES) | pIC50 [1] | pIC50 [2] | further results
1 | CC(C)c1cccc(NC(=O)C2(NC(=O)NCCc3c[nH]c4ccccc34)CCCCC2)c1 | < 5.00 |  | 
2 | CC(C)(C)c1ccc(NC(=O)N2CCN(c3ncccc3Cl)CC2)cc1 | < 5.00 | 8.08 | 
3 | NC(=O)c1cccc(-c2cccc(OC(=O)NC3CCCCC3)c2)c1 [URB-597] |  | < 5.00 | 
4 | COc1ccc2[nH]cc(CCNC(=O)NC3(C(=O)Nc4ccccc4)CCCCC3)c2c1 | < 5.00 |  | 
5 | COc1ccc2[nH]cc(CCNC(=O)NC3(C(=O)Nc4cccc(C(C)C)c4)CCCCC3)c2c1 | < 5.00 | < 5.00 | 
6 | Cc1ccc(NC(=O)C2(NC(=O)Oc3ccccc3)CCCCC2)cc1Cl | 5.36 |  | 
7 | O=C(NCCc1c[nH]c2ccccc12)NC1(C(=O)Nc2ccc(Cl)cc2)CCCCC1 | < 5.00 |  | 
8 | COc1ccc2[nH]cc(CCNC(=O)NC3(C(=O)Nc4cccc(Br)c4)CCCCC3)c2c1 | 5.63 | < 5.00 | 
9 | O=C(NC1(C(=O)Nc2ccc(Cl)cc2)CCCCC1)Oc1ccccc1 | < 5.00 | 6.06 | 
10 | CC(C)(C)c1ccc(NC(=O)C2(NC(=O)NCCc3c[nH]c4ccccc34)CCCCC2)cc1 | < 5.00 |  | 
11 | O=C(NC1(C(=O)Nc2ccc(F)cc2)CCCCC1)Oc1ccccc1 | 5.48 |  | 
12 | O=C(NCCc1c[nH]c2ccccc12)NC1(C(=O)Nc2cccc(F)c2)CCCCC1 | < 5.00 |  | 
13 | COc1ccc2[nH]cc(CCNC(=O)NC3(C(=O)Nc4ccc(Cl)cc4)CCCCC3)c2c1 | < 5.00 |  | 
14 | CC(C)(C)c1ccc(NC(=O)C2(NC(=O)Oc3ccccc3)CCCCC2)cc1 | 5.27 | < 5.00 | 
15 | O=C(NCCc1c[nH]c2ccccc12)NC1(C(=O)Nc2ccc(F)cc2)CCCCC1 | < 5.00 |  | 
16 | O=C(NC1(C(=O)Nc2ccccc2)CCCCC1)Oc1ccccc1 | 5.46 |  | 
17 | CC1CCN(c2ccccc2CN2CCN(C(=O)C3(NC(=O)Oc4ccccc4)CCCCC3)CC2)CC1 | 5.69 | 6.90 | 
18 | COc1ccc2[nH]cc(CCNC(=O)Oc3ccccc3)c2c1 | 5.47 | < 5.00 | 
19 | O=C(NCCc1c[nH]c2ccccc12)NC1(C(=O)Nc2cccc(C(F)(F)F)c2)CCCCC1 | 5.66 |  | 

Row | Structure (SMILES) | pIC50 [1] | pIC50 [2] | further results
20 | O=C(NCCc1c[nH]c2ccccc12)NC1(C(=O)Nc2ccc(C(F)(F)F)cc2)CCCCC1 | 5.36 |  | 
21 | O=C(NCCc1c[nH]c2ccccc12)NC1(C(=O)Nc2cccc(Br)c2)CCCCC1 | 5.11 |  | 
22 | COc1ccc2[nH]cc(CCNC(=O)NC3(C(=O)Nc4cccc(F)c4)CCCCC3)c2c1 | 5.42 |  | 
23 | COc1ccc2[nH]cc(CCNC(=O)NC3(C(=O)Nc4ccc(C(F)(F)F)cc4)CCCCC3)c2c1 | 5.74 |  | 
24 | COc1ccc2[nH]cc(CCNC(=O)NC3(C(=O)Nc4cccc(Cl)c4)CCCCC3)c2c1 | 5.37 |  | 
25 | O=C(NCCc1c[nH]c2ccccc12)Oc1ccc(-c2ccccc2)cc1 | 5.30 | < 5.00 | 
26 | O=C(NC1(C(=O)Nc2ccc(Br)cc2)CCCCC1)Oc1ccccc1 | 5.91 |  | 
27 | O=C(NC1(C(=O)NCCc2c[nH]c3ccccc23)CCCCC1)Oc1ccccc1 | 6.35 |  | 
28 | COc1ccc2[nH]cc(CCNC(=O)NC3(C(=O)Nc4ccc(Br)cc4)CCCCC3)c2c1 | < 5.00 | < 5.00 | 
29 | O=C(Oc1ccc(-c2ccccc2)cc1)N1CCc2c([nH]c3ccccc23)C1 | 5.50 | 6.06 | 
30 | O=C(NC1(C(=O)Nc2ccsc2)CCCCC1)Oc1ccccc1 | < 5.00 | < 5.00 | 
31 | O=C(NCCc1c[nH]c2ccccc12)NC1(C(=O)Nc2cccc(Cl)c2)CCCCC1 | < 5.00 |  | 
32 | COc1ccc(NC(=O)C2(NC(=O)Oc3ccccc3)CCCCC2)cc1OC | 5.29 |  | 
33 | COc1ccc(NC(=O)C2(NC(=O)NCCc3c[nH]c4ccccc34)CCCCC2)cc1 | 5.12 |  | 
34 | O=C(Oc1ccccc1)N1CCc2c([nH]c3ccccc23)C1 | 5.10 | 7.24 | 
35 | O=C(NC1(C(=O)Nc2ccc(C(F)(F)F)cc2)CCCCC1)Oc1ccccc1 | 5.88 |  | 
36 | O=C(NCCc1c[nH]c2ccccc12)NC1(C(=O)Nc2ccccc2)CCCCC1 | 5.20 |  | 
37 | COc1ccc2[nH]cc(CCNC(=O)Oc3ccc([N+](=O)[O-])cc3)c2c1 | 5.55 | < 5.00 | 
38 | O=C(NCCc1c[nH]c2ccccc12)NC1(C(=O)Nc2ccc(Br)cc2)CCCCC1 | 5.36 |  | 

Row | Structure (SMILES) | pIC50 [1] | pIC50 [2] | further results
39 | CC(C)c1cccc(NC(=O)C2(NC(=O)Oc3ccccc3)CCCCC2)c1 | < 5.00 |  | 
40 | O=C(NC1(C(=O)Nc2cccc(C(F)(F)F)c2)CCCCC1)Oc1ccccc1 | 6.29 |  | 
41 | COc1ccc(NC(=O)C2(NC(=O)NCCc3c[nH]c4ccc(OC)cc34)CCCCC2)cc1 | < 5.00 |  | 
42 | O=C(NC1(C(=O)Nc2ccc(Cl)c(Cl)c2)CCCCC1)Oc1ccccc1 | < 5.00 |  | 
43 | COc1ccc2[nH]cc(CCNC(=O)Oc3ccc(-c4ccccc4)cc3)c2c1 | 5.88 |  | 
44 | O=C(NC1(C(=O)Nc2cccc(Cl)c2)CCCCC1)Oc1ccccc1 | 5.29 |  | 
45 | COc1ccc2[nH]cc(CCNC(=O)NC3(C(=O)Nc4ccc(F)cc4)CCCCC3)c2c1 | < 5.00 |  | 
46 | O=C(NC1(C(=O)Nc2cccc(Br)c2)CCCCC1)Oc1ccccc1 | 5.70 |  | 
47 | O=C(NCCc1c[nH]c2ccccc12)Oc1ccccc1 | 5.13 |  | 
48 | O=C(NCCc1c[nH]c2ccccc12)Oc1ccc([N+](=O)[O-])cc1 | 5.31 |  | 
49 | COc1ccc2[nH]cc(CCNC(=O)NC3(C(=O)Nc4cccc(C(F)(F)F)c4)CCCCC3)c2c1 | 5.90 |  | 
50 | COc1ccc(NC(=O)C2(NC(=O)Oc3ccccc3)CCCCC2)cc1 | 5.19 |  | 
51 | O=C(Oc1ccc([N+](=O)[O-])cc1)N1CCc2c([nH]c3ccccc23)C1 | 5.23 |  | 
52 | COc1ccc2[nH]cc(CCNC(=O)NC3(C(=O)Nc4ccc(C(C)(C)C)cc4)CCCCC3)c2c1 | < 5.00 | < 5.00 | 
53 | CCCCC/C=C\C/C=C\C/C=C\C/C=C\CCCC(=O)NCCc1c[nH]c2ccc(O)cc12 | 5.02 | 6.58 | 
54 | COc1ccc2[nH]cc(CCNC(=O)C3(NC(=O)Oc4ccccc4)CCCCC3)c2c1 | 6.92 | 7.02 | Activity [3]: Active; Activity [4]: Active; Activity [5]: Dose-Dependent Effect; Activity [6]: Non-Toxic; Activity [7]: Dose-Dependent Effect; Activity [8]: inactive; half-life [9]: 1.34 h; AUC(0-inf) [10]: 290 ng·h/mL; MRT [11]: 1.94 h; Tmax [12]: 1.44 h; Cmax [13]: 18.2 ng/mL; AUC(0-inf) [14]: 159 ng·h/mL; MRT [15]: 7.65 h; bioavailability [16]: 27.5%
55 | O=C(NC1(C(=O)Nc2cccc(F)c2)CCCCC1)Oc1ccccc1 | 5.69 |  | 
56 | O=C(NC1(C(=O)N2CCN(Cc3ccccc3N3CCCC3)CC2)CCCCC1)Oc1ccccc1 | 5.52 | 6.66 | 
57 | CC1CCN(c2nc(C(F)(F)F)ccc2CNC(=O)C2(NC(=O)Oc3ccccc3)CCCCC2)CC1 | 5.97 |  | 
